Key:
[1] = molecular target: T1, IDO (SKOV-3 cells) (Homo sapiens, UniProt P14902); experiment: IDO cell-based assay (SKOV-3, IFNγ-induced), kynurenine production; settings: SKOV-3 ovary adenocarcinoma cells, IFNγ 500 ng/ml, 500 μM L-Trp, 48 h, kynurenine by absorbance at 490 nm
T1 construct: This assay utilised cancer cells which expressed either TDO or IDO; host or cells: SKOV-3 ovary adenocarcinoma cells, IFNγ-induced
Outline: (§1)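 SKOV-3 cells (IDO, induced with 500 ng/ml IFNγ) or A172 glioblastoma cells (TDO) were incubated with compound and 500 μM L-Trp for 48 h at 37 °C in phenol-red-free RPMI with dialysed serum. Supernatant kynurenine was measured with 1% Ehrlich's reagent as absorbance at 490 nm.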

[2] = molecular target: T2, TDO (A172 cells) (Homo sapiens, UniProt P48775); experiment: TDO cell-based assay (A172), kynurenine production; settings: A172 human glioblastoma cells, 500 μM L-Trp, 48 h, kynurenine by absorbance at 490 nm
T2 construct: This assay utilised cancer cells which expressed either TDO or IDO; host or cells: A172 human glioblastoma cells
Outline: as §1

[3] = molecular target: human IDO protein (Homo sapiens, UniProt P14902); experiment: IDO biochemical coupled assay (hIDO); settings: 0.17 μM human IDO protein, biochemical coupled assay with formamidase
Source text: (§2) Two different types of assay were employed: 1. A TDO and IDO biochemical coupled assay which utilised recombinantly produced and purified TDO and IDO enzymes in combination with the enzyme formamidase. This coupled enzyme system allowed conversion of N-formylkynurenine produced by TDO or IDO activity to kynurenine which was then quantified by fluorescence following addition of Erhlich's Reagent. 2. A cell-based assay for detecting the effect of test compounds on kynurenine production in two different cancer cell types. This assay utilised cancer cells which expressed either TDO or IDO and as such was used as a means of testing compound activity at these two enzymes in a cell-based context. The protocols for these are set out below.
0.17 μM of human IDO protein was pre-incubated for 10 min or 120 min at RT with test compounds in the presence of 50 mM KPO4, pH 7.0, 0.5 mM EDTA, 0.5 mM EGTA, 0.05% Triton X-100, 20 mM ascorbate, 500 U/ml catalase, 10 μM methylene blue at RT in a 384 well plate. 0.05 μg/μl kynurenine formamidase and 45 μM or 121 μM L-tryptophan (L-Trp) were added and the assays were incubated at RT for 17 min. Assays were stopped and the level of kynurenine was determined by incubation with Ehrlich's reagent to a final concentration of 1.33% at RT for 5 min. Fluorescence intensity was read at 475 nm/530 nm.

[4] = molecular target: human TDO protein (Homo sapiens, UniProt P48775); experiment: TDO biochemical coupled assay (hTDO); settings: 2 μM human TDO protein, biochemical coupled assay with formamidase; read-out: pIC50 in the hTDO test (converted)
Source text: as §2
2 μM of human TDO protein was pre-incubated for 10 minutes at RT with test compounds in the presence of 50 mM KH2PO4, pH 7.0, 0.5 mM EDTA, 0.5 mM EGTA, 0.05% Triton X-100, 20 mM ascorbate, 500 U/ml catalase, 10 μM methylene blue at RT in a 384 well plate. 0.05 μg/μl kynurenine formamidase and 330 μM or 178 μM L-tryptophan were added and the assays were incubated at room temperature (RT) for 17 min. Assays were stopped and the level of kynurenine was determined by incubation with Ehrlich's reagent to a final concentration of 1.33% at RT for 5 min. Fluorescence intensity was read at 475 nm/530 nm.

T2 sequence (P48775 whole entry): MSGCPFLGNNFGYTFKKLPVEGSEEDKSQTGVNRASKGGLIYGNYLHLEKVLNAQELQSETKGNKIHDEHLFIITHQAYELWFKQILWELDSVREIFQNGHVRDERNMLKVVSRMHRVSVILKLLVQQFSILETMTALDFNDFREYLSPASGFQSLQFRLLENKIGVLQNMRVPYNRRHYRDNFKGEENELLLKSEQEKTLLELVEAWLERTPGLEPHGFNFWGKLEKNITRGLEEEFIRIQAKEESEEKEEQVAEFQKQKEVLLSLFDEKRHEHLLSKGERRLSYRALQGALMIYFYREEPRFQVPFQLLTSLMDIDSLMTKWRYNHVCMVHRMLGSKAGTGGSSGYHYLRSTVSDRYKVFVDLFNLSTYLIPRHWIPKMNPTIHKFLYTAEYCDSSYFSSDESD
T1 sequence (P14902 whole entry): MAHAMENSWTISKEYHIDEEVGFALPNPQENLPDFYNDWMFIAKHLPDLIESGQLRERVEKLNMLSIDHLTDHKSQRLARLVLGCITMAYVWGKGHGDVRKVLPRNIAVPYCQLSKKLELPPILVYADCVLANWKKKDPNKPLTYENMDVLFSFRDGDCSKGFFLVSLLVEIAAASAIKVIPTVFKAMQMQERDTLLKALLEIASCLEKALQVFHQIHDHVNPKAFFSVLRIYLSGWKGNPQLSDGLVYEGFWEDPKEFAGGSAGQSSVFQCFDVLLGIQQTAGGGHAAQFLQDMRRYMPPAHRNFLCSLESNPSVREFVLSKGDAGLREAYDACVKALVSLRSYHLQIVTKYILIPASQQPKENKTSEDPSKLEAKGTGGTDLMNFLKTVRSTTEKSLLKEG
human IDO protein, sequence (P14902 whole entry): as above
human TDO protein, sequence (P48775 whole entry): as the sequence (P48775 whole entry) above

IDO cellular assay (SKOV3) pIC50 [1]	TDO cellular assay (A172) pIC50 [2]	SMILES	also measured
+++ (+++ = pIC50 ≥5.50)	− (− = pIC50 <4.50)	Cn1cc(C2(NC(=O)c3cc4cc(Br)ccc4[nH]3)CC2)cn1 [Compound 263]	–
+++ (+++ = pIC50 ≥5.50)	− (− = pIC50 <4.50)	CCc1ccc2[nH]c(C(=O)NC3(c4cnn(C)c4)CC3)cc2c1 [Compound 264]	–
+++ (+++ = pIC50 ≥5.50)	− (− = pIC50 <4.50)	Cn1cc(C2(NC(=O)c3cc4cc(Cl)ccc4[nH]3)CCOCC2)cn1 [Compound 266]	–
+++ (+++ = pIC50 ≥5.50)	− (− = pIC50 <4.50)	Cn1cc(C2(NC(=O)c3cc4cc(Br)ccc4[nH]3)CCC2)cn1 [Compound 268]	–
+++ (+++ = pIC50 ≥5.50)	− (− = pIC50 <4.50)	CCOc1ccc2[nH]c(C(=O)NC3(c4cnn(C)c4)CC3)cc2c1 [Compound 273]	–
+++ (+++ = pIC50 ≥5.50)	− (− = pIC50 <4.50)	O=C(NC1(c2cocn2)CC1)c1cc2cc(Cl)ccc2[nH]1 [Compound 274]	–

The next lines start with the compound.

SMILES	IDO cellular assay (SKOV3) pIC50 [1]	TDO cellular assay (A172) pIC50 [2]	also measured
CC(NC(=O)c1cc2cc(Cl)ccc2[nH]1)c1ccc(C(=O)N(C)C)cc1 (stereo not drawn) [Compound 83]	+++ (+++ = pIC50 ≥5.50)	− (− = pIC50 <4.50)	pIC50 in the hIDO assay [3]: 5.24
CC(C)Oc1ccc2[nH]c(C(=O)NC3(c4cnn(C)c4)CC3)cc2c1 [Compound 265]	+++ (+++ = pIC50 ≥5.50)	− (− = pIC50 <4.50)	–
CC(Cc1cnn(C)c1)NC(=O)c1cc2cc(Cl)ccc2[nH]1 (stereo not drawn) [Compound 267]	+++ (+++ = pIC50 ≥5.50)	++ (++ = pIC50 5.00-<5.50)	–
Cn1cc(C2(NC(=O)c3cc4cc(OC(F)(F)F)ccc4[nH]3)CCC2)cn1 [Compound 269]	+++ (+++ = pIC50 ≥5.50)	− (− = pIC50 <4.50)	–
CCOc1ccc2[nH]c(C(=O)N[C@H](C)c3ccccc3)cc2c1 [Compound 270]	+++ (+++ = pIC50 ≥5.50)	− (− = pIC50 <4.50)	–
CCOc1ccc2[nH]c(C(=O)NC3(c4ccccc4)CC3)cc2c1 [Compound 271]	+++ (+++ = pIC50 ≥5.50)	++ (++ = pIC50 5.00-<5.50)	–
CCOc1ccc2[nH]c(C(=O)NC(C)c3cnn(C)c3)cc2c1 (stereo not drawn) [Compound 272]	+++ (+++ = pIC50 ≥5.50)	− (− = pIC50 <4.50)	–
Cn1cc(C2(NC(=O)c3cc4cc(OC(F)(F)F)ccc4[nH]3)CC2)cn1 [Compound 275]	+++ (+++ = pIC50 ≥5.50)	− (− = pIC50 <4.50)	–
O=C(Nc1cccnc1)c1cc2ccccc2[nH]1 [REF, reference compound]	–	–	IC50 ([1]; read-out: IDO cellular assay (SKOV3) pIC50 (converted)): > 31.6 µM; IC50 [4]: > 102 µM; IC50 ([2]; read-out: TDO cellular assay (A172) pIC50 (converted)): > 31.6 µM; IC50 ([3]; read-out: pIC50 in the hIDO assay (converted)): > 102 µM

— US10167257B2, “Indole derivatives for use in medicine” (IOmet Pharma Ltd., priority 2014, dated 2019)
